The results in this text go back to BindingDB's records for doi:10.1021/jm950589q (Ibm Thomas J. Watson Research Center, 1996).

Molecules are shown by their SMILES.

The nature of this experiment: Inhibitory concentration against HIV-1 replication by interfering with virus reverse transcriptase.
Usually IC50 stands for the midpoint of a concentration-inhibition curve. `CC(C)=CCN1CCn2c(=O)[nH]c3cccc(c32)C1C` (centres undefined) [6-Methyl-7-(3-methyl-but-2-enyl)-6,7,8,9-tetrahydro-2H-2,7,9a-triaza-benzo[cd]azulen-1-one] returned an IC50 of 12100 nM.

The compound `C=C(C)CN1Cc2cccc3[nH]c(=O)n(c23)C(C)C1` (centres undefined) [9-Methyl-7-(2-methyl-allyl)-6,7,8,9-tetrahydro-2H-2,7,9a-triaza-benzo[cd]azulen-1-one] came in with an IC50 of 32100 nM.

The compound `C=C(C)CN1Cc2cc(Cl)cc3[nH]c(=S)n(c23)C(C)C1` (centres undefined) [4-Chloro-9-methyl-7-(2-methyl-allyl)-6,7,8,9-tetrahydro-2H-2,7,9a-triaza-benzo[cd]azulene-1-thione] gave an IC50 of 670 nM.

On to `CC(C)=CCN1Cc2cc(Cl)cc3[nH]c(=S)n(c23)C[C@@H]1C`, for which the IC50 came out at 43 nM.

In turn, `CC(C)=CCN1CCn2c(=O)[nH]c3ccc(Cl)c(c32)C1C` (centres undefined) [5-Chloro-6-methyl-7-(3-methyl-but-2-enyl)-6,7,8,9-tetrahydro-2H-2,7,9a-triaza-benzo[cd]azulen-1-one] displayed an IC50 of 145 nM.

`CC(C)=CCN1CCn2c(=S)[nH]c3cccc(c32)C1C` (centres undefined) [6-Methyl-7-(3-methyl-but-2-enyl)-6,7,8,9-tetrahydro-2H-2,7,9a-triaza-benzo[cd]azulene-1-thione]: 78 nM corresponded to half-maximal inhibition (IC50).

The compound `CC(C)=CCN1CCn2c(=S)[nH]c3ccc(Cl)c(c32)C1C` (centres undefined) [5-Chloro-6-methyl-7-(3-methyl-but-2-enyl)-6,7,8,9-tetrahydro-2H-2,7,9a-triaza-benzo[cd]azulene-1-thione] returned an IC50 of 12 nM.

For `CC(C)=CCN1Cc2cccc3[nH]c(=S)n(c23)C[C@@H]1C` [(11S)-11-methyl-10-(3-methylbut-2-en-1-yl)-1,3,10-triazatricyclo[6.4.1.0^{4,13}]trideca-4(13),5,7-triene-2-thione], the IC50 was determined as 97 nM.

Compound `CC(C)=CCN1Cc2cc(Cl)cc3[nH]c(=O)n(c23)CC1C` (centres undefined) had an IC50 of 180 nM.

In turn, `CC(C)=CCN1CCn2c(=S)[nH]c3ccc(Cl)c(c32)C1` [5-Chloro-7-(3-methyl-but-2-enyl)-6,7,8,9-tetrahydro-2H-2,7,9a-triaza-benzo[cd]azulene-1-thione] had an IC50 of 46 nM.

On to `CC(C)=CCN1Cc2cccc3[nH]c(=O)n(c23)CC1C` (centres undefined), for which half-maximal inhibition (IC50) required 3320 nM.

For the compound `CC1C(C)n2c(=S)[nH]c3cccc(c32)CN1CC1CC1` (centres undefined) [7-Cyclopropylmethyl-8,9-dimethyl-6,7,8,9-tetrahydro-2H-2,7,9a-triaza-benzo[cd]azulene-1-thione], half-maximal inhibition (IC50) required 13400 nM.

`CC(C)=CCN1Cc2cccc3[nH]c(=S)n(c23)C(C)C1C` (centres undefined) [8,9-Dimethyl-7-(3-methyl-but-2-enyl)-6,7,8,9-tetrahydro-2H-2,7,9a-triaza-benzo[cd]azulene-1-thione] displayed an IC50 of 2220 nM.

Compound `CC1Cn2c(=S)[nH]c3cc(Cl)cc(c32)CN1CC1CC1` (centres undefined) [4-Chloro-7-cyclopropylmethyl-8-methyl-6,7,8,9-tetrahydro-2H-2,7,9a-triaza-benzo[cd]azulene-1-thione] registered an IC50 of 34 nM.

In turn, `CC(C)=CCN1CCn2c(=O)[nH]c3cc(Cl)cc(c32)C1C` (centres undefined) [4-Chloro-6-methyl-7-(3-methyl-but-2-enyl)-6,7,8,9-tetrahydro-2H-2,7,9a-triaza-benzo[cd]azulen-1-one] displayed a half-inhibitory concentration (IC50) of 160 nM.

With `CC(C)=CCN1[C@H](C)Cn2c(=O)[nH]c3cc(Cl)cc(c32)[C@@H]1C` [(6S,8R)-4-Chloro-6,8-dimethyl-7-(3-methyl-but-2-enyl)-6,7,8,9-tetrahydro-2H-2,7,9a-triaza-benzo[cd]azulen-1-one], the IC50 was 230 nM.

In turn, `CC(C)=CCN1CC(C)n2c(=S)[nH]c3cccc(c32)C1C` (centres undefined) [6,9-Dimethyl-7-(3-methyl-but-2-enyl)-6,7,8,9-tetrahydro-2H-2,7,9a-triaza-benzo[cd]azulene-1-thione] displayed an IC50 of 25800 nM.

In turn, `CC(C)=CCN1[C@H](C)Cn2c(=S)[nH]c3cccc(c32)[C@@H]1C` [(6S,8R)-6,8-Dimethyl-7-(3-methyl-but-2-enyl)-6,7,8,9-tetrahydro-2H-2,7,9a-triaza-benzo[cd]azulene-1-thione] registered an IC50 of 1150 nM.

With `CC1Cn2c(=S)[nH]c3cccc(c32)CN1CC1CC1` (centres undefined), the IC50 turned out to be 60 nM.

For `C=C(C)CN1Cc2cccc3[nH]c(=O)n(c23)C(CCC)C1` (centres undefined) [7-(2-Methyl-allyl)-9-propyl-6,7,8,9-tetrahydro-2H-2,7,9a-triaza-benzo[cd]azulen-1-one], the IC50 is 48100 nM.

In turn, `CC(C)=CCN1Cc2c(Cl)ccc3[nH]c(=S)n(c23)C[C@@H]1C` [5-Chloro-8-methyl-7-(3-methyl-but-2-enyl)-6,7,8,9-tetrahydro-2H-2,7,9a-triaza-benzo[cd]azulene-1-thione] showed an IC50 of 5 nM.

`C=C(C)CN1Cc2cccc3[nH]c(=O)n(c23)CC1C` (centres undefined) came in with an IC50 of 34700 nM.

`CC(C)=CCN1CCn2c(=S)[nH]c3cc(Cl)cc(c32)C1C` (centres undefined) [4-Chloro-6-methyl-7-(3-methyl-but-2-enyl)-6,7,8,9-tetrahydro-2H-2,7,9a-triaza-benzo[cd]azulene-1-thione] came in with an IC50 of 23 nM.

With `CC(C)=CCN1[C@H](C)Cn2c(=S)[nH]c3cccc(c32)[C@H]1C` [(6R,8R)-6,8-Dimethyl-7-(3-methyl-but-2-enyl)-6,7,8,9-tetrahydro-2H-2,7,9a-triaza-benzo[cd]azulene-1-thione], the IC50 was 42 nM.

Regarding `C=C(C)CN1Cc2cccc3[nH]c(=S)n(c23)CC1C` (centres undefined), the IC50 came to 26 nM.

`CC(C)=CCN1Cc2cccc3[nH]c(=O)n(c23)C(C)C1C` (centres undefined) [8,9-Dimethyl-7-(3-methyl-but-2-enyl)-6,7,8,9-tetrahydro-2H-2,7,9a-triaza-benzo[cd]azulen-1-one] came in with an IC50 of 56700 nM.

The compound `CC(C)=CCN1[C@H](C)Cn2c(=S)[nH]c3cc(Cl)cc(c32)[C@@H]1C` [(6S,8R)-4-Chloro-6,8-dimethyl-7-(3-methyl-but-2-enyl)-6,7,8,9-tetrahydro-2H-2,7,9a-triaza-benzo[cd]azulene-1-thione] returned a concentration for half-maximal inhibition (IC50) of 480 nM.

`C=C(C)CN1Cc2cccc3[nH]c(=O)n(c23)C(C(C)C)C1` (centres undefined) [9-Isopropyl-7-(2-methyl-allyl)-6,7,8,9-tetrahydro-2H-2,7,9a-triaza-benzo[cd]azulen-1-one] showed an IC50 of 12600 nM.

As for `CC(C)=CCN1CCn2c(=S)[nH]c3cc(Cl)cc(c32)C1` [4-Chloro-7-(3-methyl-but-2-enyl)-6,7,8,9-tetrahydro-2H-2,7,9a-triaza-benzo[cd]azulene-1-thione], the 50% inhibitory concentration (IC50) was 160 nM.
